The record followed here is PMC8480593, “Anti-influenza A virus activity and structure–activity relationship of a series of nitrobenzoxadiazole derivatives” (Journal of Enzyme Inhibition and Medicinal Chemistry, 2021).

The subject of data set [1] is influenza virus A/Puerto Rico/8/34 H1N1 (PR8). Briefly: microbe, parasite or virus in culture. In kind it is cell-based.
A further data set has as its system MDCK cells. Briefly: Cytotoxicity on MDCK cells (MTT and Trypan Blue exclusion). Particulars: 1–30 µM, Toxic = toxic at all tested concentrations.
Data set [2] has as its system influenza virus A/Puerto Rico/8/34 H1N1 (PR8). The note with it: A549 cells, CC50 by Trypan Blue exclusion.
For data set [3] the test system is unchanged. The note with it: A549 cells; CC50 from Cell Tag in mock infected cells, IC50 by ICW.
The test system is the same in data set [4]. Put plainly: microbe, parasite or virus in culture. Particulars: H1N1|PR8, A549, read-out: IC50, HAU – A549.
Data set [5] has the same test system. Put plainly: microbe, parasite or virus in culture. Particulars: unidentified influenza virus, A549, read-out: IC50, ICW – A549.
A further data set in a line: in vitro. The note with it: human.
The mark [6] stands for this setting: MDCK cells infected with PR8 (m.o.i. 0.001), HAU in supernatants 24 h p.i., Inactive = at maximum tested concentration (30 µM).
The mark [7] stands for this setting: unidentified influenza virus, MDCK, 24 h, read-out: IC50 (concentration required to inhibit viral replication of 50%), MDCK cells infected with PR8 (m.o.i. 0.001), HAU in supernatants 24 h p.i., Inactive = at maximum tested concentration (30 µM).

Where two headings read alike, the source gives them in different places. Where only a bound is given, the exact number is not on record here.

As for `O=C(CCSc1ccc([N+](=O)[O-])c2nonc12)NCCO` [Compound 14], the “IC50 (concentration required to inhibit viral replication of 50%)” value in data set [1] (setting [6]) is “Inactive^b”. In addition, in data set [1] (setting [7]), the IC50 is greater than 30 µM.
In the case of `CC(C)(C)Sc1ccc([N+](=O)[O-])c2nonc12` [Compound 21], in data set [1] (setting [6]), the “IC50 (concentration required to inhibit viral replication of 50%)” value is recorded as “Inactive^b”. Moreover, the IC50 in data set [1] (setting [7]) was greater than 30 µM.
For `O=C(O)c1ccccc1Sc1ccc([N+](=O)[O-])c2nonc12` [Compound 27] the same measures were “Inactive^b” and greater than 30 µM.
The matching figures for `O=[N+]([O-])c1ccc(S(=O)(=O)CCCCCCO)c2nonc12` [Compound 44]: “Inactive^b” and greater than 30 µM.
Turning to `CN(C)CCNC(=O)c1ccc(Sc2ccc([N+](=O)[O-])c3nonc23)cc1` [Compound 38], in data set [1] (setting [6]), the “IC50 (concentration required to inhibit viral replication of 50%)” value is “Inactive^b”. Also, the IC50 in data set [1] (setting [7]) was greater than 30 µM.
For `CN(C)C(=O)c1ccc(Sc2ccc([N+](=O)[O-])c3nonc23)cc1` [Compound 32], in data set [1] (setting [7]), the IC50 is greater than 30 µM.
Take `O=C(O)Cc1ccc(Sc2ccc([N+](=O)[O-])c3nonc23)cc1` [Compound 39]: the “IC50 (concentration required to inhibit viral replication of 50%)” value in data set [1] (setting [6]) is “Inactive^b”. Moreover, the IC50 in data set [1] (setting [7]) is greater than 30 µM.
The melting point is the temperature, or range, at which the solid turns liquid. `O=[N+]([O-])c1ccc(Sc2nc3ccccc3[nH]2)c2nonc12` [Compound 23, 4-((1H-benzo[d]imidazol-2-yl)thio)-7-nitrobenzo[c][1,2,5]oxadiazole] gave a melting point of 206 to 208 °C. Moreover, in data set [1] (setting [6]), the “IC50 (concentration required to inhibit viral replication of 50%)” value is on record as “Inactive^b”. In addition, the IC50 in data set [1] (setting [7]) was greater than 30 µM.
Consider `NC(=O)c1ccc(Sc2ccc([N+](=O)[O-])c3nonc23)cc1` [Compound 31], for which the “IC50 (concentration required to inhibit viral replication of 50%)” value in data set [1] (setting [6]) is reported as “Inactive^b”. The IC50 in data set [1] (setting [7]) is greater than 30 µM.
`O=C1CCN(C(=O)CCSc2ccc([N+](=O)[O-])c3nonc23)CC1` [Compound 16]: the Cytotoxicity entry in the data set on MDCK cells is listed as “Toxic^a”.
Regarding `O=[N+]([O-])c1ccc([S+]([O-])CCCCCCO)c2nonc12` (stereo not shown) [Compound 43], in data set [1] (setting [6]), the “IC50 (concentration required to inhibit viral replication of 50%)” value was “Inactive^b”. Moreover, in data set [1] (setting [7]), the IC50 is greater than 30 µM.
Regarding `O=[N+]([O-])c1ccc(SCc2ccccc2)c2nonc12` [Compound 25], in data set [1], the “IC50 (concentration required to inhibit viral replication of 50%)” value is “effective against IV”. Further, the IC50 in data set [1] (read-out: IC50 (concentration required to inhibit viral replication of 50%), MDCK cells infected with PR8 (m.o.i. 0.001), HAU in supernatants 24 h p.i., Inactive = at maximum tested concentration (30 µM)) is 6.3 ± 0.5 µM; in data set [1] (setting [7]), less than 10 µM; in data set [4] it was 1.9 ± 0.1 µM; in data set [5] it was 8.9 ± 0.6 µM. Besides, in data set [2], the “SI (CC50/IC50 HAU – A549)” value came to 6. Also, the “SI (CC50/IC50 ICW – A549)” value in data set [3] stood at 4.
Regarding `CCOC(=O)c1ccc(CSc2ccc([N+](=O)[O-])c3nonc23)cc1` [Compound 42], in data set [1] (setting [7]), the IC50 came to 17.2 ± 1.6 µM.
Turning to `O=C(NCCO)c1ccc(Sc2ccc([N+](=O)[O-])c3nonc23)cc1` [Compound 37], the “IC50 (concentration required to inhibit viral replication of 50%)” value in data set [1] (setting [6]) is given as “Inactive^b”. Besides, in data set [1] (setting [7]), the IC50 was greater than 30 µM.
For `COC(=O)CCSc1ccc([N+](=O)[O-])c2nonc12` [Compound 12], the “IC50 (concentration required to inhibit viral replication of 50%)” value in data set [1] was “effective against IV”. For the same compound, in data set [2], the “SI (CC50/IC50 HAU – A549)” value stood at 11. The “SI (CC50/IC50 ICW – A549)” value in data set [3] is reported as 5. This compound had a CC50 at 24 h in “in vitro” of 54.5 µM. Also, the IC50 in data set [4] amounted to 5.1 ± 0.2 µM; in data set [5], 10 ± 0.5 µM.
For the compound `CCOC(=O)c1ccc(Sc2ccc([N+](=O)[O-])c3nonc23)cc1` [Compound 30], the “IC50 (concentration required to inhibit viral replication of 50%)” value in data set [1] (setting [6]) is “Inactive^b”. Also, the IC50 in data set [1] (setting [7]) is greater than 30 µM.
Compound `O=[N+]([O-])c1ccc(Sc2ncccn2)c2nonc12` [Compound 22, 4-nitro-7-(pyrimidin-2-ylthio)benzo[c][1,2,5]oxadiazole] showed a melting point of 144 to 147 °C.
For `O=C(O)CCC(=O)OCCOCCSc1ccc([N+](=O)[O-])c2nonc12` [Compound 11, 4–(2–(2-((7-nitrobenzo[c][1,2,5]oxadiazol-4-yl)thio)ethoxy)ethoxy)-4-oxobutanoic acid], the melting point lay within 74 to 76 °C. In data set [1], the “IC50 (concentration required to inhibit viral replication of 50%)” value was “effective against IV”. For the same compound, the IC50 in data set [1] (setting [7]) is greater than 30 µM.
Regarding `O=[N+]([O-])c1ccc(SCCCCCCCCO)c2nonc12` [Compound 6], in data set [1] (setting [7]), the IC50 is greater than 30 µM.
As for `O=[N+]([O-])c1ccc(NCCCCCCO)c2nonc12` [Compound 45], the “IC50 (concentration required to inhibit viral replication of 50%)” value in data set [1] (setting [6]) was “Inactive^b”. The IC50 in data set [1] (setting [7]) is greater than 30 µM. In the data set with MDCK cells, the Cytotoxicity entry is reported as “NOT toxic”.
Consider `O=C(O)CCc1ccc(Sc2ccc([N+](=O)[O-])c3nonc23)cc1` [Compound 40], for which, in data set [1], the “IC50 (concentration required to inhibit viral replication of 50%)” value was “effective against IV”. For the same compound, the IC50 in data set [1] (setting [7]) came out at 18.3 ± 1.6 µM.
In turn, `CC(=O)N[C@@H](CSc1ccc([N+](=O)[O-])c2nonc12)C(=O)O` [Compound 19, N-acetyl-S-(7-nitrobenzo[c][1,2,5]oxadiazol-4-yl)cysteine] showed a melting point of 166 to 168 °C. Besides, in data set [1], the “IC50 (concentration required to inhibit viral replication of 50%)” value was “effective against IV”. The IC50 in data set [1] (setting [7]) was determined as 24 ± 2.3 µM.
With `O=C(O)c1ccc(CSc2ccc([N+](=O)[O-])c3nonc23)cc1` [Compound 41], the “IC50 (concentration required to inhibit viral replication of 50%)” value in data set [1] was “effective against IV”. In addition, the IC50 in data set [1] (setting [7]) is 10.8 ± 0.6 µM.
On to `O=C(O)CCC(=O)OCCCCCCSc1ccc([N+](=O)[O-])c2nonc12` [Compound 10], for which, in data set [1] (setting [7]), the IC50 is 22.2 ± 1.4 µM.
On to `O=C(O)c1cccc(Sc2ccc([N+](=O)[O-])c3nonc23)c1` [Compound 28], for which the “IC50 (concentration required to inhibit viral replication of 50%)” value in data set [1] (setting [6]) was “Inactive^b”. Further, in data set [1] (setting [7]), the IC50 is greater than 30 µM.
For the compound `O=C(NO)c1ccc(Sc2ccc([N+](=O)[O-])c3nonc23)cc1` [Compound 33], the “IC50 (concentration required to inhibit viral replication of 50%)” value in data set [1] (setting [6]) is “Inactive^b”. In addition, the IC50 in data set [1] (setting [7]) was greater than 30 µM.
For `COC(=O)C(CSc1ccc([N+](=O)[O-])c2nonc12)NC(=O)OC(C)(C)C` (stereo not shown) [Compound 17], in data set [1], the “IC50 (concentration required to inhibit viral replication of 50%)” value is “effective against IV”. Further, the “SI (CC50/IC50 HAU – A549)” value in data set [2] is 2. In data set [3], the “SI (CC50/IC50 ICW – A549)” value amounted to 3. Also, the IC50 in data set [4] came to 11.7 ± 1 µM; in data set [5] it was 9.6 ± 0.8 µM.
The compound `O=C(O)CCC(=O)OCCCCSc1ccc([N+](=O)[O-])c2nonc12` [Compound 9, 4–(4-((7-nitrobenzo[c][1,2,5]oxadiazol-4-yl)thio)butoxy)-4-oxobutanoic acid] showed a melting point of 90 to 93 °C. For the same compound, in data set [1], the “IC50 (concentration required to inhibit viral replication of 50%)” value is listed as “effective against IV”. Also, the IC50 in data set [1] (setting [7]) was 17.1 ± 0.9 µM.
